According to PMC7048748, “Anxiolytic Drug FGIN-1-27 Ameliorates Autoimmunity by Metabolic Reprogramming of Pathogenic Th17 Cells” (Scientific Reports, 2020):

System: Th17 cells
Assay: Lipidomics of Th17 cells
Type: cell-based, mouse
Design: key to nCE(16:0) / nCE(18:2) / nDCER(22:0) / nDCER[FA14:0] / nFFA(12:0) / nFFA(14:1) / nFFA(18:4) / nCE(22:0) / nCE(22:6) / nCE(24:1) / nCE[FA14:1] / nCE(12:0) / nCE[FA16:0] / nCE[FA17:0] / nCE[FA18:2] / nCE[FA22:6]: mole percent of each fatty acid within its lipid class
Description: Specific cholesterol precursors like desmosterol and oxysterols, such as 7β, 27-dihydroxycholesterol (7β, 27-OHC), have been identified as ligands for RORγt[21],[22] and shown to modulate Th17 differentiation. […] Next, we extended our studies to lipid metabolites and profiled the lipidome of Th17 cells treated with DMSO or FGIN-1-27.
(a) Quantitation of cholesterol esters, triacylglycerols (TAGs), phosphatidylethanolamine (PE) and phosphatidylcholine (PC) in Th17 cells 72 hours after treatment with FGIN-1-27. The error bars represent SD. (b) Heat map showing fatty acid composition (mole percent) for different lipid classes after treatment with FGIN-1-27. (c) Pie charts showing proportions of different fatty acid classes namely PUFAs, MUFAs, ODD and SFAs within the cholesterol esters. (d) Transcript analysis for CD5L 72 hours post treatment with FGIN-1-27. The error bars represent SD.
Th17 cells were differentiated from naïve purified CD4 T cells and treated with either FGIN-1-27 (10 µM) or DMSO during polarization. 10 million cells/treatment were harvested and snap frozen. […] The extracts were concentrated under nitrogen and reconstituted in 0.25 mL of dichloromethane:methanol (50:50) containing 10 mM ammonium acetate. The extracts were placed in vials for infusion-MS analyses, performed on a SelexION equipped Sciex 5500 QTRAP using both positive and negative mode electrospray. Each sample was subjected to 2 analyses, with IMS-MS conditions optimized for lipid classes monitored in each analysis. The 5500 QTRAP was operated in MRM mode to monitor the transitions for over 1,100 lipids from up to 14 lipid classes. Individual lipid species were quantified based on the ratio of signal intensity for target compounds to the signal intensity for an assigned internal standard of known concentration. Lipid class concentrations were calculated from the sum of all molecular species within a class, and fatty acid compositions were determined by calculating the proportion of individual fatty acids within each class.

CCCCCCN(CCCCCC)C(=O)Cc1c(-c2ccc(F)cc2)[nH]c2ccccc12 [FGIN-1-27, N, N-di-n-hexyl 2-(4-fluorophenyl) indole-3-acetamide]
down-regulation of cholesterol esters (72 hours, 10 µM): 5 folds
reduction in triacylglycerides (TAGs) (72 hours, 10 µM): 2 fold
MUFA proportion within the cholesterol esters (Fig. 6c pie chart): 39%
ODD proportion within the cholesterol esters (Fig. 6c pie chart): 10%
PUFA proportion within the cholesterol esters (Fig. 6c pie chart): 14%
SFA proportion within the cholesterol esters (Fig. 6c pie chart): 37%
nCE (Th17 cells, 10 µM): 0.3432
nCE(12:0) (Th17 cells, 10 µM): 0.3209
nCE(14:0) (Th17 cells, 10 µM): 7.863
nCE(14:1) (Th17 cells, 10 µM): 0.8946
nCE(15:0) (Th17 cells, 10 µM): 6.739
nCE(16:0) (Th17 cells, 10 µM): 20.165
nCE(16:1) (Th17 cells, 10 µM): 5.753
nCE(17:0) (Th17 cells, 10 µM): 3.887
nCE(18:0) (Th17 cells, 10 µM): 9.753
nCE(18:1) (Th17 cells, 10 µM): 25.3604
nCE(18:2) (Th17 cells, 10 µM): 6.676
nCE(18:3) (Th17 cells, 10 µM): 0.6485
nCE(18:4) (Th17 cells, 10 µM): 0.0392
nCE(20:0) (Th17 cells, 10 µM): 0.838
nCE(20:1) (Th17 cells, 10 µM): 1.913
nCE(20:2) (Th17 cells, 10 µM): 0.3245
nCE(20:3) (Th17 cells, 10 µM): 0.8988
nCE(20:4) (Th17 cells, 10 µM): 3.812
nCE(20:5) (Th17 cells, 10 µM): 0.1401
nCE(22:0) (Th17 cells, 10 µM): 0.2674
nCE(22:1) (Th17 cells, 10 µM): 0.4486
nCE(22:2) (Th17 cells, 10 µM): 0.3494
nCE(22:4) (Th17 cells, 10 µM): 0.2548
nCE(22:5) (Th17 cells, 10 µM): 0.2179
nCE(22:6) (Th17 cells, 10 µM): 0.5711
nCE(24:0) (Th17 cells, 10 µM): 0.624
nCE(24:1) (Th17 cells, 10 µM): 1.24
nCER (Th17 cells, 10 µM): 0.6286
nCER(14:0) (Th17 cells, 10 µM): 0.8623
nCER(16:0) (Th17 cells, 10 µM): 27.3543
nCER(18:0) (Th17 cells, 10 µM): 2.572
nCER(18:1) (Th17 cells, 10 µM): 0.1145
nCER(20:0) (Th17 cells, 10 µM): 2.068
nCER(20:1) (Th17 cells, 10 µM): 0.05342
nCER(22:0) (Th17 cells, 10 µM): 7.074
nCER(22:1) (Th17 cells, 10 µM): 0.4579
nCER(24:0) (Th17 cells, 10 µM): 30.2198
nCER(24:1) (Th17 cells, 10 µM): 28.2356
nCER(26:0) (Th17 cells, 10 µM): 0.4655
nCER(26:1) (Th17 cells, 10 µM): 0.5227
nCER[FA14:0] (Th17 cells, 10 µM): 0.8623
nCER[FA16:0] (Th17 cells, 10 µM): 27.3543
nCER[FA18:0] (Th17 cells, 10 µM): 2.572
nCER[FA18:1] (Th17 cells, 10 µM): 0.1145
nCER[FA20:0] (Th17 cells, 10 µM): 2.068
nCER[FA20:1] (Th17 cells, 10 µM): 0.05342
nCER[FA22:0] (Th17 cells, 10 µM): 7.074
nCER[FA22:1] (Th17 cells, 10 µM): 0.4579
nCER[FA24:0] (Th17 cells, 10 µM): 30.2198
nCER[FA24:1] (Th17 cells, 10 µM): 28.2356
nCER[FA26:0] (Th17 cells, 10 µM): 0.4655
nCER[FA26:1] (Th17 cells, 10 µM): 0.5227
nCE[FA12:0] (Th17 cells, 10 µM): 0.3209
nCE[FA14:0] (Th17 cells, 10 µM): 7.863
nCE[FA14:1] (Th17 cells, 10 µM): 0.8946
nCE[FA15:0] (Th17 cells, 10 µM): 6.739
nCE[FA16:0] (Th17 cells, 10 µM): 20.165
nCE[FA16:1] (Th17 cells, 10 µM): 5.753
nCE[FA17:0] (Th17 cells, 10 µM): 3.887
nCE[FA18:0] (Th17 cells, 10 µM): 9.753
nCE[FA18:1] (Th17 cells, 10 µM): 25.3604
nCE[FA18:2] (Th17 cells, 10 µM): 6.676
nCE[FA18:3] (Th17 cells, 10 µM): 0.6485
nCE[FA18:4] (Th17 cells, 10 µM): 0.0392
nCE[FA20:0] (Th17 cells, 10 µM): 0.838
nCE[FA20:1] (Th17 cells, 10 µM): 1.913
nCE[FA20:2] (Th17 cells, 10 µM): 0.3245
nCE[FA20:3] (Th17 cells, 10 µM): 0.8988
nCE[FA20:4] (Th17 cells, 10 µM): 3.812
nCE[FA20:5] (Th17 cells, 10 µM): 0.1401
nCE[FA22:0] (Th17 cells, 10 µM): 0.2674
nCE[FA22:1] (Th17 cells, 10 µM): 0.4486
nCE[FA22:2] (Th17 cells, 10 µM): 0.3494
nCE[FA22:4] (Th17 cells, 10 µM): 0.2548
nCE[FA22:5] (Th17 cells, 10 µM): 0.2179
nCE[FA22:6] (Th17 cells, 10 µM): 0.5711
nCE[FA24:0] (Th17 cells, 10 µM): 0.624
nCE[FA24:1] (Th17 cells, 10 µM): 1.24
nDAG (Th17 cells, 10 µM): 2.149
nDAG(12:0/16:0) (Th17 cells, 10 µM): 0.1725
nDAG(12:0/18:0) (Th17 cells, 10 µM): 0.3066
nDAG(12:0/18:1) (Th17 cells, 10 µM): 0.3287
nDAG(12:0/18:2) (Th17 cells, 10 µM): 0.07889
nDAG(14:0/14:0) (Th17 cells, 10 µM): 0.8017
nDAG(14:0/16:0) (Th17 cells, 10 µM): 9.103
nDAG(14:0/16:1) (Th17 cells, 10 µM): 1.239
nDAG(14:0/18:1) (Th17 cells, 10 µM): 2.636
nDAG(14:0/18:2) (Th17 cells, 10 µM): 0.1578
nDAG(14:0/18:3) (Th17 cells, 10 µM): 0.01025
nDAG(14:0/20:0) (Th17 cells, 10 µM): 0.2618
nDAG(14:0/20:4) (Th17 cells, 10 µM): 0.02818
nDAG(14:0/22:6) (Th17 cells, 10 µM): 0.05137
nDAG(14:1/16:0) (Th17 cells, 10 µM): 0.2729
nDAG(14:1/18:1) (Th17 cells, 10 µM): 0.217
nDAG(15:0/18:1) (Th17 cells, 10 µM): 0.2893
